The test system of experiment [1] is multidrug-resistant HIV-1 clinical isolate, patient 22. The experiment can be described thus: IC50 against multidrug-resistant clinical isolates (Table 9a). It counts as cell-based. Conditions: Human immunodeficiency virus 1. As for the experimental part: (§1) The mutant multidrug-resistant HIV-1 strains corresponding to each patient, numbered 9-35, were genetically analyzed in terms of the nucleic acid sequences of the protease (PR) and a portion of the reverse transcriptase (RT) genes from which mutations in these enzymes were determined. The mutations in the protease and reverse transcriptase of the multidrug-resistant viruses isolated from each patient are shown below in Table 9b.

Experiment [2] relates to multidrug-resistant HIV-1 clinical isolate, patient 34. The experiment is described as above. It counts as cell-based. Particulars: Human immunodeficiency virus 1. On the procedure: as §1
The subject of another experiment is wild-type HIV-1 (WT). The experiment is described as follows: IC50 against wild-type HIV-1 (Table 9a). It counts as cell-based. Particulars: Human immunodeficiency virus 1; (WT).
Experiment [3] relates to multidrug-resistant HIV-1 clinical isolate, patient 21. The experiment is described as follows: microbe, parasite or virus in culture. It counts as cell-based. Particulars: Human immunodeficiency virus 1; Patient Isolate 21. As for the experimental part:
as §1

Experiment [4] has as its system multidrug-resistant HIV-1 clinical isolate, patient 14. The experiment is described as follows: microbe, parasite or virus in culture. It counts as cell-based. Particulars: Human immunodeficiency virus 1; Patient Isolate 14. On the procedure: as §1
The test system of experiment [5] is multidrug-resistant HIV-1 clinical isolate, patient 13. The experiment is described as follows: microbe, parasite or virus in culture. Conditions: Human immunodeficiency virus 1; Patient Isolate 13. It counts as cell-based. On the procedure: as §1
In experiment [6] the test system is multidrug-resistant HIV-1 clinical isolate, patient 20. The experiment is described as follows: microbe, parasite or virus in culture. It counts as cell-based. Particulars: Human immunodeficiency virus 1; Patient Isolate 20. As for the experimental part:
as §1

The subject of experiment [7] is multidrug-resistant HIV-1 clinical isolate, patient 18. The experiment can be described thus: microbe, parasite or virus in culture. It counts as cell-based. Conditions: Human immunodeficiency virus 1; Patient Isolate 18. As for the experimental part:
as §1

The subject of experiment [8] is multidrug-resistant HIV-1 clinical isolate, patient 27. The experiment is described as follows: microbe, parasite or virus in culture. It is filed as cell-based. Particulars: Human immunodeficiency virus 1; Patient Isolate 27. On the procedure:
as §1

The test system of experiment [9] is multidrug-resistant HIV-1 clinical isolate, patient 11. The experiment can be described thus: microbe, parasite or virus in culture. It counts as cell-based. Conditions: Human immunodeficiency virus 1; Patient Isolate 11. As for the experimental part:
as §1

The test system of experiment [10] is multidrug-resistant HIV-1 clinical isolate, patient 19. The experiment can be described thus: microbe, parasite or virus in culture. Conditions: Human immunodeficiency virus 1; Patient Isolate 19. It is filed as cell-based. As for the experimental part:
as §1

In experiment [11] the test system is multidrug-resistant HIV-1 clinical isolate, patient 16. The experiment is described as follows: microbe, parasite or virus in culture. It counts as cell-based. Particulars: Human immunodeficiency virus 1; Patient Isolate 16. As for the experimental part:
as §1

In experiment [12] the test system is multidrug-resistant HIV-1 clinical isolate, patient 35. The experiment is described as follows: microbe, parasite or virus in culture. It counts as cell-based. Conditions: Human immunodeficiency virus 1; Patient Isolate 35. As for the experimental part:
as §1

For experiment [13], the system named is multidrug-resistant HIV-1 clinical isolate, patient 31. The experiment can be described thus: microbe, parasite or virus in culture. It is filed as cell-based. Particulars: Human immunodeficiency virus 1; Patient Isolate 31. As for the experimental part: as §1
Experiment [14] concerns multidrug-resistant HIV-1 clinical isolate, patient 23. The experiment is described as follows: microbe, parasite or virus in culture. It is filed as cell-based. Particulars: Human immunodeficiency virus 1; Patient Isolate 23. As for the experimental part: as §1
The subject of experiment [15] is multidrug-resistant HIV-1 clinical isolate, patient 15. The experiment is described as follows: microbe, parasite or virus in culture. It counts as cell-based. Particulars: Human immunodeficiency virus 1; Patient Isolate 15. On the procedure:
as §1

For experiment [16], the system named is multidrug-resistant HIV-1 clinical isolate, patient 9. The experiment can be described thus: microbe, parasite or virus in culture. It counts as cell-based. Particulars: Human immunodeficiency virus 1; Patient Isolate 9. On the procedure: as §1
Experiment [17] deals with multidrug-resistant HIV-1 clinical isolate, patient 32. The experiment is described as follows: microbe, parasite or virus in culture. It counts as cell-based. Conditions: Human immunodeficiency virus 1; Patient Isolate 32. As for the experimental part:
as §1

Experiment [18] concerns multidrug-resistant HIV-1 clinical isolate, patient 12. The experiment is described as follows: microbe, parasite or virus in culture. Particulars: Human immunodeficiency virus 1; Patient Isolate 12. It is filed as cell-based. As for the experimental part:
as §1

Experiment [19] deals with multidrug-resistant HIV-1 clinical isolate, patient 28. The experiment is described as follows: microbe, parasite or virus in culture. It counts as cell-based. Conditions: Human immunodeficiency virus 1; Patient Isolate 28. As for the experimental part:
as §1

The subject of experiment [20] is multidrug-resistant HIV-1 clinical isolate, patient 33. The experiment can be described thus: microbe, parasite or virus in culture. It counts as cell-based. Conditions: Human immunodeficiency virus 1; Patient Isolate 33. On the procedure:
as §1

The test system of experiment [21] is multidrug-resistant HIV-1 clinical isolate, patient 30. The experiment can be described thus: microbe, parasite or virus in culture. It counts as cell-based. Particulars: Human immunodeficiency virus 1; Patient Isolate 30. As for the experimental part: as §1
The test system of experiment [22] is multidrug-resistant HIV-1 clinical isolate, patient 10. The experiment is described as follows: microbe, parasite or virus in culture. Conditions: Human immunodeficiency virus 1; Patient Isolate 10. It counts as cell-based. On the procedure: as §1
The subject of experiment [23] is multidrug-resistant HIV-1 clinical isolate, patient 17. The experiment is described as follows: microbe, parasite or virus in culture. It is filed as cell-based. Conditions: Human immunodeficiency virus 1; Patient Isolate 17. As for the experimental part: as §1
Experiment [24] deals with multidrug-resistant HIV-1 clinical isolate, patient 29. The experiment can be described thus: microbe, parasite or virus in culture. It is filed as cell-based. Particulars: Human immunodeficiency virus 1; Patient Isolate 29. As for the experimental part: as §1
For experiment [25], the system named is multidrug-resistant strains of HIV-1. The experiment is described as follows: PHA-PBMC p24 assay, panel of eight multidrug-resistant clinical isolates. It is filed as cell-based. Conditions: eight multidrug-resistant clinical isolates of Table 3. On the procedure:
(§2) The patient profiles are shown below in Table 2.
(§3) To determine protease inhibitory activity against multidrug resistant HIV, the IC50's were measured against a panel of clinically isolated mutant HIV isolates.
(§4) All drug sensitivities were performed in triplicate. In order to determine whether the HIV isolates were syncitium inducing (SI) or non-syncitium inducing (NSI), an aliquot of viral stock supernatant, containing 100 TCID50, was cultured with 1×10^5 MT-2 cells in a 12-well plate. Cultures were maintained for four weeks and were examined for syncytium formation twice a week.

The next experiment deals with HIV-1BAL. The experiment can be described thus: PHA-PBMC assay, p24 Gag protein production. Particulars: Human immunodeficiency virus 1; HIV-1BAL, NSI; PHA-PBMC, p24 (Table 3). It is filed as cell-based.
Experiment [26] deals with multidrug-resistant HIV-1 clinical isolate, patient 3. The experiment is described as follows: PHA-PBMC assay, p24 Gag protein production. It counts as cell-based. Particulars: Human immunodeficiency virus 1; Patient/Isolate code 3; PHA-PBMC, p24. On the procedure: as §2, §3, §4
Experiment [27] concerns multidrug-resistant HIV-1 clinical isolate, patient 4. The experiment can be described thus: PHA-PBMC assay, p24 Gag protein production. It counts as cell-based. Particulars: Human immunodeficiency virus 1; Patient/Isolate code 4; PHA-PBMC, p24. As for the experimental part: as §2, §3, §4
The next experiment deals with HIV-1ERS104pre. The experiment is described as follows: PHA-PBMC assay, p24 Gag protein production. It is filed as cell-based. Conditions: Human immunodeficiency virus 1; HIV-1ERS104pre, SI; PHA-PBMC, p24. As for the experimental part: as §2, §3, §4
Experiment [28] concerns multidrug-resistant HIV-1 clinical isolate, patient 2. The experiment is described as follows: PHA-PBMC assay, p24 Gag protein production. It is filed as cell-based. Particulars: Human immunodeficiency virus 1; Patient/Isolate code 2; PHA-PBMC, p24. As for the experimental part:
as §2, §3, §4

Experiment [29] has as its system multidrug-resistant HIV-1 clinical isolate, patient 8. The experiment is described as follows: PHA-PBMC assay, p24 Gag protein production. Conditions: Human immunodeficiency virus 1; Patient/Isolate code 8; PHA-PBMC, p24. It counts as cell-based. As for the experimental part:
as §2, §3, §4

Experiment [30] concerns multidrug-resistant HIV-1 clinical isolate, patient 1. The experiment can be described thus: PHA-PBMC assay, p24 Gag protein production. It is filed as cell-based. Particulars: Human immunodeficiency virus 1; Patient/Isolate code 1; PHA-PBMC, p24. On the procedure:
as §2, §3, §4

The test system of experiment [31] is multidrug-resistant HIV-1 clinical isolate, patient 6. The experiment can be described thus: PHA-PBMC assay, p24 Gag protein production. Conditions: Human immunodeficiency virus 1; Patient/Isolate code 6; PHA-PBMC, p24. It counts as cell-based. As for the experimental part:
as §2, §3, §4

The subject of experiment [32] is multidrug-resistant HIV-1 clinical isolate, patient 7. The experiment can be described thus: PHA-PBMC assay, p24 Gag protein production. Particulars: Human immunodeficiency virus 1; Patient/Isolate code 7; PHA-PBMC, p24. It is filed as cell-based. On the procedure:
as §2, §3, §4

Experiment [33] has as its system multidrug-resistant HIV-1 clinical isolate, patient 5. The experiment can be described thus: PHA-PBMC assay, p24 Gag protein production. It counts as cell-based. Conditions: Human immunodeficiency virus 1; Patient/Isolate code 5; PHA-PBMC, p24. As for the experimental part:
as §2, §3, §4

For another experiment, the system named is HIV-1LAI. The experiment is described as follows: PHA-PBMC assay, p24 Gag protein production. It is filed as cell-based. Conditions: Human immunodeficiency virus 1; HIV-1LAI, SI; PHA-PBMC, p24 (Table 3).
A further experiment concerns the target wild-type HIV protease (Human immunodeficiency virus type 1 group M subtype B, UniProt P04585). The experiment can be described thus: biochemical.
A further experiment relates to wild-type HIV. The experiment is described as follows: wild-type antiretroviral activity (Table 4). Conditions: Human immunodeficiency virus 1, read-out: ID50.

Molecules are shown by their SMILES.

This note sets out measurements from patent US9889115B2, “Fitness assay and associated methods” (priority 1998, dated 2018).

The term Ki denotes a dissociation constant, usually derived from enzyme kinetics or from competition with a known ligand. Lower therefore signals a stronger hold on the target.

Take `CC(C)c1nc(CN(C)C(=O)N[C@H](C(=O)N[C@@H](Cc2ccccc2)C[C@H](O)[C@H](Cc2ccccc2)NC(=O)OCc2cncs2)C(C)C)cs1` [RTV, Ritonavir]: the IC50 amounted to 560 nM in experiment [1]; 3.38 µM in experiment [2]; 19 nM in the experiment with wild-type HIV-1 (WT); 2180 nM in experiment [3]; 40 nM in [4]; 1640 nM in experiment [5]. Also, the IC50 in experiment [6] came out at 1900 nM; in [7] it was 3.02 µM; in experiment [8] it was 2970 nM; in experiment [9] it was 10 nM; in [10] it was 2940 nM; in experiment [11], 1340 nM. Also, the IC50 in [12] came to 2600 nM; in experiment [13] it was 850 nM; in experiment [14], 1820 nM; in experiment [15], 1140 nM; in experiment [16], 530 nM; in experiment [17], 370 nM. Moreover, the IC50 was 2470 nM in experiment [18]; 2660 nM in experiment [19]; 180 nM in [20]; 1030 nM in [21]; 2030 nM in experiment [22]; 870 nM in experiment [23]. Moreover, the IC50 is 360 nM in [24]; 18 nM in the experiment on HIV-1BAL; more than 1000 nM in experiment [26]; more than 1000 nM in experiment [27]; 55 nM in the experiment on HIV-1ERS104pre; more than 1000 nM in [28]. Moreover, the IC50 in [29] is more than 1000 nM; in experiment [30] it was more than 1000 nM; in experiment [31], more than 1000 nM; in experiment [32], more than 1000 nM; in experiment [33], more than 1000 nM; in the experiment with HIV-1LAI, 4.7 nM. The “potency against the multidrug-resistant strains (in words)” value in experiment [25] was “virtually inactive”.
Compound `Cc1ccc(S(=O)(=O)N(CC(C)C)CC(O)C(Cc2ccccc2)NC(=O)OC2COC3OCCC23)cc1` (centres unmarked) came in with a Ki at wild-type HIV protease of 1.2 nM. The IC50 in the experiment on wild-type HIV was found to be 3.5 nM.
In the same order, the values of `COc1ccc(S(=O)(=O)N(CC(C)C)CC(O)C(Cc2ccccc2)NC(=O)OC2COC3OCCCC23)cc1` (centres unmarked) are 2.2 nM and 4.5 nM.
